In US20050124620A1, “Pharmaceutical compounds” (priority 2002, published 2005):

How the values were obtained:
α p38 = α p38 (Homo sapiens, UniProt Q16539); assay: p38 MAP kinase inhibitory activity (33P-ATP / myelin basic protein filter assay); type: biochemical; settings: for IC50: MKK6-activated α p38, MBP substrate
Method: Compounds of the invention were tested for p38 MAP kinase inhibitory activity using the following protocol.
The reaction was allowed to proceed for fifty minutes before being stopped with an excess of ortho-phosphoric acid (30 μl at 2%). γ^33 P-ATP which remained unincorporated into the myelin basic protein was separated from phoshorylated MBP on a Mlipore (RTM) MAPH filter plate. The wells of the MAPH plate were wetted with 0.5% orthophosphoric acid, and then the results of the reaction were filtered with a Millipore vacuum filtration unit through the wells. Following filtration, the residue was washed twice with 200 μl of 0.5% orthophosphoric acid. Once the filters had dried, […] of Microscint 20™ scintillant was added, and then counted on a Packard Topcount™ counter for 30 seconds. The percentage inhibition of the p38 activity was calculated and plotted in order to determine the concentration of the test compound required to inhibit 50% of the p38 activity (IC50).

THP-1 cells = assay: Inhibition of LPS-induced TNF-α production in THP-1 cells, in vitro assay; type: cell-based; settings: Homo sapiens; PMA-treated THP-1 cells, 1 μg/ml LPS, 6 h, TNF-α by ELISA
Method: The ability of the compounds of this invention to inhibit the TNF-α release was determined using a rninor modification of the methods described in Rawlins P., et al., “Inhibition of endotoxin-induced TNF-α production in macrophages by 5Z-7-oxo-zeaenol and other fungal resorcyclic acid lactones,” International J. of Immunopharmacology, 21, 799, (1999).
THP-1 cells, human monocytic leukaemic cell line, ECACC) were maintained in culture medium [RPMI 1640 (Invitrogen) and 2 mM L-Glutamine supplemented with 10% foetal bovine serum (Invitrogen)] at approximately 37° C. in humidified 5% CO2 in stationary culture. TBP-1 cells were suspended in culture medium containing 50 ng/ml PMA (SIGMA), seeded into a 96-well tissue culture plate (IWAKI) at 1×10^5 cells/well (100 μl/well) and incubated as described above for approximately 48 h. The medium was then aspirated, the wells washed twice in Phosphate Buffered Saline and 1 μg/ml LPS (SIGMA) in culture medium was added (200 μl/well).
Test compounds were reconstituted in DMSO (SIGMA) and then diluted with the culture medium such that the final DMSO concentration was 0.1%. […] Culture supernatants were collected and the amount of human TNF-α present was determined by ELISA (R&D Systems) performed according to the manufacturer's instructions. […]

Chain of α p38 (Q16539 whole entry): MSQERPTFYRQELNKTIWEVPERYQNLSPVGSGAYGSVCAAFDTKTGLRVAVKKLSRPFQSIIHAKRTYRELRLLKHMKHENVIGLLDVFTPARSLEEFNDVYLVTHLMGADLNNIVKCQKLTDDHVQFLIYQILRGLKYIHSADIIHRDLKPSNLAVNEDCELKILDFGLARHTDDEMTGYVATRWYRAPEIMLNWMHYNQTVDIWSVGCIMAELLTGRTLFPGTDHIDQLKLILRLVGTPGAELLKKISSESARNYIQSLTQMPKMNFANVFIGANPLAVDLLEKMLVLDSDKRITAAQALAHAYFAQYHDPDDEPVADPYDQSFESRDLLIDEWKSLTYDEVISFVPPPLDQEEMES

Compound	IC50 (α p38; 50 min reaction) [µM]	also measured
3-(2-(4-Pyridyl)ethyl-7-azaindole [Example 12]	177	–
c1ccc2c(CCc3ccncc3)c[nH]c2c1 [Example 1, 3-(2-(4-Pyridyl)ethyl)indole]	33	–
Cn1cc(CCc2ccncc2)c2ccccc21 [Example 2, 1-Methyl-3-(2-(4-pyridyl)ethyl)indole]	240	–
c1ccc(CCc2c[nH]c3ccccc23)nc1 [Example 3, 3-(2-(2-Pyridyl)ethyl)indole]	820	–
Cc1ccc2[nH]cc(CCc3ccncc3)c2c1 [Example 4, 5-Methyl-3-(2-(4-pridyl)ethyl)indole]	250	–
Clc1ccc2[nH]cc(CCc3ccncc3)c2c1 [Example 5, 5-Chloro-3-(2-(4-pyridyl)ethyl)indole]	122	–
O=[N+]([O-])c1ccc2[nH]cc(CCc3ccncc3)c2c1 [Example 6, 5-Nitro-3-(2-(4-pyridyl)ethyl)indole]	300	–
CC(=O)Nc1ccc2[nH]cc(CCc3ccncc3)c2c1 [Example 7, 5-Acetamido-3-(2-(4-pyridyl)ethyl)indole]	650	–
Cc1[nH]c2ccccc2c1CCc1ccncc1 [Example 8, 2-Methyl-3-(2-(4-pyridyl)ethyl)indole]	270	–
Cc1cccc2[nH]cc(CCc3ccncc3)c12 [Example 9, 4-Methyl-3-(2-(4-pyridyl)ethyl)indole]	111	–
Cc1cccc2c(CCc3ccncc3)c[nH]c12 [Example 10, 7-Methyl-3-(2-(4-pyridyl)ethyl)indole]	35	–
Fc1cccc2[nH]cc(CCc3ccncc3)c12 [Example 11, 4-Fluoro-3-(2-(4-pyridyl)ethyl)indole]	45	–
O=C(Nc1ccc2[nH]cc(CCc3ccncc3)c2c1)c1ccccc1 [Example 13B, 5-Benzamido-3-(2-(pyrid-4-yl)ethyl)indole]	40	–
O=C(Nc1ccc2[nH]cc(CCc3ccncc3)c2c1)c1cc(F)cc(N2CCOCC2)c1 [Example 14B, 5-(3-Fluoro-5-(4-morpholino)benzamido)-3-(2-(4-pyridyl)ethyl)indole]	–	IC50 (α p38; unit stated in cell): 0.5 µM; IC50 (THP-1 cells): 0.53 µM
O=C(Nc1ccc2c(CCc3ccncc3)c[nH]c2c1)c1cc(F)cc(N2CCOCC2)c1 [Example 15B, 6-(3-Fluoro-5-(4-morpholino)benzamido)-3-(2-(4-pyridyl)ethyl)indole]	–	inhibition at 3 µM (α p38; @ 3 μM, read-out: percentage inhibition of the p38 activity): 36%
O=C(Nc1ccc2[nH]cc(CCc3ccncc3)c2c1)c1cccc(OC(F)(F)F)c1 [Example 16B, 5-(3-Trifluoromethoxybenzamido)-3-(2-(4-pyridy)ethyl)indole]	2	–
O=C(Nc1ccc2[nH]cc(CCc3ccncc3)c2c1)c1cccc(C(F)(F)F)c1 [Example 17B]	4	–

Compound	IC50 (α p38; 50 min reaction) [µM]	also measured
O=C(Nc1ccc2c(ccn2CCc2ccncc2)c1)c1cc(F)cc(N2CCOCC2)c1 [Example 18B, 5-(3-Fluoro-5-(4-morpholino)benzamido)-1-(2-(4-pyridyl)ethyl)indole]	3	–
c1ccc2c(c1)ccn2CCc1ccncc1 [Example 19, 1-(2-(4-pyridyl)ethyl)indole]	200	–
Nc1ccc2[nH]cc(CCc3ccncc3)c2c1 [Example 20A, 5-Amino-3-(2-(4-pyridyl)ethyl)indole]	–	inhibition at 1000 µM (α p38; @ 1 mM, read-out: percentage inhibition of the p38 activity): 23%
O=C(Nc1ccccc1)Nc1ccc2[nH]cc(CCc3ccncc3)c2c1 [Example 20B, 5-(Phenylcarbamoylamino)-3-(2-(4-pyridyl)ethyl)indole]	28	–
Clc1nccc(CCc2c[nH]c3ccccc23)n1 [Example 22, 3-(2-(2-Chloro-4-pyrimidinyl)ethyl)indole]	120	–
O=C(Nc1ccc2[nH]cc(CCc3ccncc3)c2c1)c1ccnc(N2CCOCC2)c1 [Example 23B, 5-(2-(4-Morpholino)isonicotinamido)-3-(2-(4-pyridyl)ethyl)indole]	1.3	–
O=C1c2ccccc2C(=O)N1c1ccc2[nH]cc(CCc3ccncc3)c2c1 [Example 24B, 5-(1-Phthalimido)-3-(2-(4-pyridyl)ethyl)indole]	–	inhibition at 300 µM (α p38; @ 300 μM, read-out: percentage inhibition of the p38 activity): 25%
Nc1ccc2ccn(CCc3ccncc3)c2c1 [Example 25A, 6-Amino-1-(2-(4-pyridyl)ethyl)indole]	475	–
O=C(Nc1ccc2[nH]cc(CCc3ccncc3)c2c1)c1ccc(N2CCCC2=O)cc1 [Example 26, 5-(4-(2-oxo-pyrrolidin-1-yl)benzamido)-3-(2-(4-pyridyl)ethyl)indole]	–	inhibition at 1 µM (α p38; @ 1 μM, read-out: percentage inhibition of the p38 activity): 28%
OCCNc1nccc(CCc2c[nH]c3ccccc23)n1 [Example 27]	38	–
CC(C)(CO)Nc1nccc(CCc2c[nH]c3ccccc23)n1 [Example 28, 3-(2-(2-(3-Hydroxy-2-methyl-prop-2-ylamino)-4-pyrimidinyl)ethyl)indole]	1.5	–
C[C@H](Nc1nccc(CCc2c[nH]c3ccccc23)n1)c1ccccc1 [Example 29, 3-(2-(2-((S)-(−)-α-methylbenzylamino)-4-pyrimidinyl)ethyl)indole]	3	–
C[C@@H](Nc1nccc(CCc2c[nH]c3ccccc23)n1)c1ccccc1 [Example 30, 3-(2-(2-((R)-(+)-α-methylbenzylamino)-4-pyrimidinyl)ethyl)idole]	15	–
c1ccc2c(CCc3ccncn3)c[nH]c2c1 [Example 31, 3-(2-(4-Pyrimidinyl)ethyl)indole]	715	–
CC(C)(C)c1cc(NC(=O)Nc2ccc3[nH]cc(CCc4ccncc4)c3c2)n(-c2ccccc2)n1 [Example 32, 5-(3-tert-Butyl-1-phenylpyrazol-5-ylcarbamoylamino)-3-(2-(4-pyridyl)ethyl)indole]	–	IC50 (α p38; unit stated in cell): 0.145 µM
Cc1ccc(S(=O)(=O)n2cc(CCc3cccnc3)c3ccccc32)cc1 [Example 34, 1-[(4-Methylphenyl)sulphonyl]-3-(2-(3-pridyl)ethyl)indole]	–	IC50 (α p38; unit stated in cell): > 1000 µM
